{"source": "patent US9034791B2", "about": "“Method for controlling noxious organisms” (Sumitomo Chemical Company, Limited, priority 2012, dated 2015)", "type_in_all_cases": "in vivo", "settings_in_all_cases": "day 7 after sowing, scale 0 to 100", "key": {"Ivyleaf morningglory [1]": {"tested_on": "Ivyleaf morningglory", "test": "Pot test, herbicidal effect with fludioxonil-treated corn seeds and soil-applied PPO inhibitor", "protocol": "(§1) The evaluation of the herbicidal effect is classified into 0 to 100, in which the numeral “0” indicates no or little difference in the state of germination or growth of test weeds as compared with the untreated weeds at the time of the investigation, and the numeral “100” indicates the complete death of the test plants or the complete suppression of their germination or growth.\n(§2) In a plastic cup of 100 mm in inside diameter and 40 mm in height, 19.8 mg of a fludioxonil suspension (a suspension containing 20% of fludioxonil, trade name: Savior flowable, manufactured by Syngenta Japan K. K.) and 40 corn seeds were placed. The plastic cup was shaken by the hand so that the fludioxonil suspension was attached to the corn seeds. The weight of 40 corn seeds was 13.2 g, and the amount of fludioxonil by the above treatment was calculated as 30 g per 100 kg of the corn seeds.\nIn the same manner, 193.5 mg of the fludioxonil suspension was attached to 40 corn seeds. The weight of 40 corn seeds was 12.9 g, and the amount of fludioxonil by the above treatment was calculated as 300 g per 100 kg of the corn seeds.\n(§3) A soil was packed in a plastic pot of 120 mm in inside diameter×80 mm in height. The above treated corn seeds were sown in this pot at a rate of two seeds per pot, and the seeds of ivyleaf morningglory were sown at a rate of four seeds per pot. On the day of sowing the corn seeds and after sowing the corn seeds, an aqueous diluted solution (113 mg of active ingredient/L or 225 mg of active ingredient/L) of a flumioxazin granular wettable powder (a granular wettable powder containing 51% of flumioxazin, trade name: Valor SX, manufactured by Valent USA), an aqueous diluted solution (226 mg of active ingredient/L or 1130 mg of active ingredient/L) of a sulfentrazone granular wettable powder (a granular wettable powder containing 75% of sulfentrazone, trade name: Cover, manufactured by DuPont), or an aqueous diluted solution (113 mg/L or 226 mg/L) of saflufenacil was uniformly sprayed on the soil surface with a sprayer so as to apply the amount described in Tables 4 to 6. The aqueous diluted solution of saflufenacil was prepared by dissolving a predetermined amount of saflufenacil in acetone containing 2% (w/v) of Tween 20, and diluting this solution with water so as to have an acetone concentration of 10% by volume.\nOn day 7 after sowing the seeds of corn and ivyleaf morningglory, the herbicidal effect was investigated."}, "Ivyleaf morningglory [2]": {"tested_on": "Ivyleaf morningglory", "test": "Pot test, herbicidal effect with fludioxonil-treated soybean seeds and soil-applied PPO inhibitor", "protocol": "as §1\nas §2, with “14.25” for “19.8”, “soybean” for “corn”, “9.55” for “13.2”\nIn the same manner, 151.4 mg of the fludioxonil suspension was attached to 40 soybean seeds. The weight of 40 soybean seeds was 10.1 g, and the amount of fludioxonil by the above treatment was calculated as 300 g per 100 kg of the soybean seeds.\nas §3, with “soybean” for “corn”, “1” for “4”, “3.” for “6.”\nOn day 7 after sowing the seeds of soybean and ivyleaf morningglory, the herbicidal effect was investigated."}, "Ivyleaf morningglory [3]": {"tested_on": "Ivyleaf morningglory", "test": "Pot test, herbicidal effect with fludioxonil-treated cotton seeds and soil-applied PPO inhibitor", "protocol": "as §1\nIn a plastic cup of 100 mm in inside diameter and 40 mm in height, 8.55 mg of a fludioxonil suspension (a suspension containing 20% of fludioxonil, trade name: Savior flowable, manufactured by Syngenta Japan K. K.) and 40 cotton seeds were placed. The plastic cup was shaken by the hand so that the fludioxonil suspension was attached to the cotton seeds. The weight of 40 cottonseeds was 5.7 g, and the amount of fludioxonil by the above treatment was calculated as 30 g per 100 kg of the cotton seeds.\nIn the same manner, 84.8 mg of the fludioxonil suspension was attached to 40 cotton seeds. The weight of 40 cotton seeds was 5.65 g, and the amount of fludioxonil by the above treatment was calculated as 300 g per 100 kg of the cotton seeds.\nas §3, with “cotton” for “treated corn”, “cotton” for “corn”, “7” for “4”, “9.” for “6.”\nOn day 7 after sowing the seeds of cotton and ivyleaf morningglory, the herbicidal effect was investigated."}, "[4]": {"settings": "fludioxonil None, PPO inhibitor 100 g/ha soil surface"}, "[5]": {"settings": "fludioxonil None, PPO inhibitor 50 g/ha soil surface"}, "[6]": {"settings": "fludioxonil 30 g/100 kg of seeds, PPO inhibitor None"}, "[7]": {"settings": "fludioxonil 300 g/100 kg of seeds, PPO inhibitor None"}, "[8]": {"settings": "fludioxonil None, PPO inhibitor 500 g/ha soil surface"}}}
{"molecule": "CC(C)N(C)S(=O)(=O)NC(=O)c1cc(-n2c(=O)cc(C(F)(F)F)n(C)c2=O)c(F)cc1Cl", "note": "[saflufenacil]", "values": [{"measurement": "Herbicidal effect Ivyleaf morningglory", "setting": "Ivyleaf morningglory [1]; [4]", "result": 30}, {"measurement": "Herbicidal effect Ivyleaf morningglory", "setting": "Ivyleaf morningglory [2]; [4]", "result": 40}, {"measurement": "Herbicidal effect Ivyleaf morningglory", "setting": "Ivyleaf morningglory [3]; [5]", "result": 30}, {"measurement": "Herbicidal effect Ivyleaf morningglory", "setting": "Ivyleaf morningglory [3]; [4]", "result": 40}]}
{"molecule": "N#Cc1c[nH]cc1-c1cccc2c1OC(F)(F)O2", "note": "[fludioxonil]", "values": [{"measurement": "Herbicidal effect Ivyleaf morningglory", "setting": "Ivyleaf morningglory [1]; [6]", "result": 0}, {"measurement": "Herbicidal effect Ivyleaf morningglory", "setting": "Ivyleaf morningglory [1]; [7]", "result": 0}, {"measurement": "Herbicidal effect Ivyleaf morningglory", "setting": "Ivyleaf morningglory [2]; [6]", "result": 0}, {"measurement": "Herbicidal effect Ivyleaf morningglory", "setting": "Ivyleaf morningglory [2]; [7]", "result": 0}, {"measurement": "Herbicidal effect Ivyleaf morningglory", "setting": "Ivyleaf morningglory [3]; [6]", "result": 0}, {"measurement": "Herbicidal effect Ivyleaf morningglory", "setting": "Ivyleaf morningglory [3]; [7]", "result": 0}]}
{"molecule": "Cc1nn(-c2cc(NS(C)(=O)=O)c(Cl)cc2Cl)c(=O)n1C(F)F", "note": "[sulfentrazone]", "values": [{"measurement": "Herbicidal effect Ivyleaf morningglory", "setting": "Ivyleaf morningglory [1]; [4]", "result": 40}, {"measurement": "Herbicidal effect Ivyleaf morningglory", "setting": "Ivyleaf morningglory [2]; [4]", "result": 20}, {"measurement": "Herbicidal effect Ivyleaf morningglory", "setting": "Ivyleaf morningglory [2]; [8]", "result": 60}, {"measurement": "Herbicidal effect Ivyleaf morningglory", "setting": "Ivyleaf morningglory [3]; [8]", "result": 30}]}
{"molecule": "C#CCN1C(=O)COc2cc(F)c(N3C(=O)C4=C(CCCC4)C3=O)cc21", "note": "[flumioxazin]", "values": [{"measurement": "Herbicidal effect Ivyleaf morningglory", "setting": "Ivyleaf morningglory [1]; [5]", "result": 20}, {"measurement": "Herbicidal effect Ivyleaf morningglory", "setting": "Ivyleaf morningglory [1]; [4]", "result": 50}, {"measurement": "Herbicidal effect Ivyleaf morningglory", "setting": "Ivyleaf morningglory [2]; [4]", "result": 20}, {"measurement": "Herbicidal effect Ivyleaf morningglory", "setting": "Ivyleaf morningglory [3]; [4]", "result": 30}]}
